Legend:
[1] = target: T1, human glucocorticoid receptor (hGR) (Homo sapiens, UniProt P04150); test: human glucocorticoid receptor binding assay (displacement of 3H triamcinolone acetonide); details: 1 μM
T1 construct: made in house; host or cells: Sf21 insect cells infected with baculovirus hGR, OR IM9 lymphoblast cell line (endogenous hGR)
T1 sequence (P04150 1-777): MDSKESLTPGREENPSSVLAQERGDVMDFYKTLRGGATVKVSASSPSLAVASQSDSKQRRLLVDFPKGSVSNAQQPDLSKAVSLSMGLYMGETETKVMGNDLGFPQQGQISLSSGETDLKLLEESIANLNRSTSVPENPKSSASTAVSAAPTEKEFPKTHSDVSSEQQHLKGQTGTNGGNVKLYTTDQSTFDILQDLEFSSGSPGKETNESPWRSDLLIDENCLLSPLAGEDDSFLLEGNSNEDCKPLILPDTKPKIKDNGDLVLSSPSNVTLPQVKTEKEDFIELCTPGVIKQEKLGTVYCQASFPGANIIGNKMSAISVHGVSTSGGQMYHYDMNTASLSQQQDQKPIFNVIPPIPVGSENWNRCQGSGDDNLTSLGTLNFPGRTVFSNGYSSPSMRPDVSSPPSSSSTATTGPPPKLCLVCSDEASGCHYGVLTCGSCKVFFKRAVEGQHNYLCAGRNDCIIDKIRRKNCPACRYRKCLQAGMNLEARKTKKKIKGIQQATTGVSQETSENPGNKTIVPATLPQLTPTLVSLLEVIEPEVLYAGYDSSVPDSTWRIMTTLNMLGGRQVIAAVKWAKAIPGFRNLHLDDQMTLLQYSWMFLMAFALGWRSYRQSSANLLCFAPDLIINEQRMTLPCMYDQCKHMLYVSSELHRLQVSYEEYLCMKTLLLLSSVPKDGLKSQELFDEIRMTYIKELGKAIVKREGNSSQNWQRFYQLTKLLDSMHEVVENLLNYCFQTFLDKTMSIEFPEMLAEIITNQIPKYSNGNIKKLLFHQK
Protocol: A human glucocorticoid receptor binding assay was carried out to determine the extent to which the compounds of this invention have the ability to bind to human glucocorticoid receptors. This binding ability may be indicative of the antiinflammatory activity of the compound. The test was carried out as follows.
Human glucocorticoid receptors were prepared from either insect cells (Sf21) infected with baculovirus hGR or from a lymphoblast cell line which expresses high levels of endogenous hGR (IM9). The receptor binding reactions, with or without test compounds, were set up in 96-well microtiter plates which were previously siliconized with SIGMACOTE™, a chlorinated organopolysiloxane in heptane. The binding components, 3(H) Triamcinolone acetonide (TAA), glycerol/molybdate-containing buffer and unlabeled compounds were added to the wells using a combination of BIOMEK laboratory automation system and repeat pipettes. After four hours of incubation, the samples were precipitated with polyethylene glycol and filtered through Whatman GFIF paper using a TOMTEK cell harvester. The filter mate with 96 samples were bound to a solid-phase scintillant and directly counted in a BETAPLATE counter. […] The activity of test compounds to displace 3(H) TAA binding to hGR is also expressed as percent inhibition at 1 μM.

[2] = test system: human progesterone receptor (hPR); test: human progesterone receptor binding assay (displacement of 3H R5020 promegestone)
Protocol: A human progesterone receptor binding assay was performed in order to determine selectivity of the compounds, as follows. Human progesterone receptors were prepared from either insect cells (SF21) infected with baculovirus hPR A, or from a breast cancer cell line, T47D, which expresses high levels of endogenous hPR. The receptor binding reactions, with or without test compounds, were set up in 96-well microtiter plates which were previously siliconized with SIGMACOTE. The binding components, 3(H) R5020 Promegestone, a high affinity ligand for the progesterone receptors, glycerollmolybdate-containing buffer and unlabeled compounds were added to the wells using a combination of BIOMEK laboratory automation system and repeat pipettes. After overnight incubation, the samples were precipitated with polyethylene glycol and filtered through Whatman GF/F paper using a TOMTEK cell harvester. The filter mate with 96 samples were bound to a solid-phase scintillant and directly counted in the BETAPLATE counter. Only those compounds that were active in the human glucocorticoid receptor assay set forth in Example 30 were used for progesterone receptor binding to determine cross-reactivity profiles, if any. The activity of test compounds to displace 3(H) R5020 binding to hPR is expressed as percent inhibition at the two concentrations, 10^−6 and 10^−5 Molar.

| Structure (SMILES) | hGR, value given as % (% inhibition) [1] [%] | hPR % inh 10 μM [2] [%] |
| --- | --- | --- |
| COc1ccccc1CC(=O)NCC(c1ccccc1)C(c1ccccc1)c1ccccc1 (stereo not drawn) [Compound 5] | 62 | – |
| COc1ccccc1NC(=O)NCC(c1ccccc1)C(c1ccccc1)c1ccccc1 (stereo not drawn) [Compound 51] | 32 | – |
| COc1ccccc1CC(=O)NCC(c1ccccc1)C1c2ccccc2-c2ccccc21 (stereo not drawn) [Compound 67] | 23 | – |
| O=C(Cc1ccccc1Cl)NCC(c1ccccc1)C1c2ccccc2-c2ccccc21 (stereo not drawn) [Compound 68] | 46 | – |
| O=C(Cc1ccccc1C(F)(F)F)NCC(c1ccccc1)C1c2ccccc2-c2ccccc21 (stereo not drawn) [Compound 69] | 15 | – |
| COc1ccccc1CCC(=O)NCC(c1ccccc1)C1c2ccccc2-c2ccccc21 (stereo not drawn) [Compound 70] | 53 | – |
| Cc1ccc(C(=O)NCC(c2ccccc2)C2c3ccccc3-c3ccccc32)s1 (stereo not drawn) [Compound 72, N-(2-carbonyl-5-methylthiophene)-2-(9H-fluoreny-9-yl)-2-phenylethylamine] | 33 | – |
| CC(C)CC(=O)NCC1(c2ccccc2)CC1(c1ccccc1)c1ccccc1 (stereo not drawn) [Compound 85] | 68 | – |
| O=C(NCC1(c2ccccc2)CC1(c1ccccc1)c1ccccc1)Nc1ccccc1F (stereo not drawn) [Compound 93] | 11 | – |
| COc1ccccc1NC(=O)NCC1(c2ccccc2)CC1(c1ccccc1)c1ccccc1 (stereo not drawn) [Compound 94] | 13 | – |
| O=C(NCc1ccccc1)NCC1(c2ccccc2)CC1(c1ccccc1)c1ccccc1 (stereo not drawn) [Compound 95] | 4 | – |
| Cc1ccc(C(=O)NCC(c2ccc(I)cc2)C(c2ccccc2)c2ccccc2)s1 (stereo not drawn) [Compound 180] | – | 57 |
| COc1ccccc1C(=O)NCC(c1ccc(I)cc1)C(c1ccccc1)c1ccccc1 (stereo not drawn) [Compound 181] | – | 41 |
| COc1cccc(C(=O)NCC(c2ccc(I)cc2)C(c2ccccc2)c2ccccc2)c1 (stereo not drawn) [Compound 182] | – | 15 |
| COc1cc(OC)cc(C(=O)NCC(c2ccc(I)cc2)C(c2ccccc2)c2ccccc2)c1 (stereo not drawn) [Compound 183] | – | 42 |
